{"source": "patent US20260263374A1", "about": "“COMPOSITIONS OF NANOPARTICLES FOR TREATMENT OF NEUROPATHIC PAIN” (NANOBIOTIX S.A., priority 2022, published 2026)", "assay_type_in_all_cases": "in vivo, Sprague-Dawley rats", "key": {"[1]": {"tested_on": "oxaliplatin-induced mechanical allodynia", "test": "CIPN model (Example 5): mechanical allodynia, paw withdrawal threshold with von Frey filaments after oxaliplatin", "details": "rat, oxaliplatin 10 mg/kg i.p.; 30 mg/kg p.o. each day of von Frey testing, tested 2 hr post dose", "procedure": "The aim of this study was to investigate the effect of a single intraplantar treatment with Nanoparticles from Example 1 (NP1B) at the dose of 11 g/L, Nanoparticles from Example 2 (NP2B) at 53 g/L, Nanoparticles from Example 3 (NP20B) at 57 g/L, and Nanoparticles from Example 4 (NP20A) at 59 g/L, each in 20 μL of injection volume, on the mechanical allodynia (as assessed using von Frey) that occurs following systemic administration of oxaliplatin in the rat.\nExperimental subjects: Seventy-two (72) adult male Sprague-Dawley rats were used for this study. […]\nStatic mechanical (tactile) allodynia evaluation: Measurement of paw withdrawal threshold (PWT) was achieved using calibrated (force; g) von-Frey monofilaments (Touch-Test Sensory Evaluator; Scientific Marketing Associates) applied to the plantar surface of the hind paw. Withdrawal threshold was determined by increasing and decreasing stimulus intensity and estimated using Dixon's up-down method. […]\nBaseline readings for latency to withdrawal (sec) were assessed on three consecutive days (Day −3, Day −2 and Day −1). […]\nMechanical allodynia was subsequently re-assessed 2-3 times per week following injection, out to D26 post-oxaliplatin. […]"}, "[2]": {"tested_on": "oxaliplatin-induced mechanical allodynia", "test": "CIPN model (Example 6): dose effect, paw withdrawal threshold with von Frey filaments, left (treated) vs right (vehicle) paw", "details": "30 mg/kg p.o. each day of von Frey testing; on any of the test days", "source_text": "Animals were allowed to recover from transportation for at least one week before commencing experiments.\nData is presented as mean±SEM."}, "[3]": {"tested_on": "STZ-induced mechanical allodynia", "test": "STZ-induced diabetic neuropathic pain study (Example 7): paw withdrawal threshold with von Frey filaments", "details": "30 mg/kg p.o. 2 hr prior to each von Frey test"}}}
{"molecule": "CC(C)C[C@H](CN)CC(=O)O", "note": "[Pregabalin]", "values": [{"measurement": "PWT, allodynic response (positive control)", "setting": "[1]", "result": "rescued the allodynic response and recovered the PWT to the healthy baseline levels"}, {"measurement": "PWT levels (both paws) compared to ‘Vehicle/Vehicle’ group (not neuropathic)", "setting": "[2]", "result": "not significantly different from the ‘Vehicle/Vehicle’ group"}, {"measurement": "PWT levels compared to ‘STZ/Vehicle’ group", "setting": "[3]", "result": "significantly different from the ‘STZ/Vehicle’ group on all days tested"}]}
